Results from ChEMBL document CHEMBL3217663, “Evaluation of FR901464 analogues in vitro and in vivo” (Medchemcomm, 2011).
The source made the active and inactive calls. The calls are words filed in the database; no cut-off is given here.

Assays:
MCF7 = assay: Antiproliferative activity against human MCF7 cells assessed as growth inhibition after 24 to 72 hrs by MTS assay; type: functional
A549 = assay: Antiproliferative activity against human A549 cells assessed as growth inhibition after 24 to 72 hrs by MTS assay; type: functional
HCT-116 [1] = assay: Antiproliferative activity against human HCT116 cells assessed as growth inhibition after 24 to 72 hrs by MTS assay; type: functional
P388 = assay: Antiproliferative activity against mouse P388 cells assessed as growth inhibition after 24 to 72 hrs by MTS assay; type: functional
[2] = Antiproliferative activity against NHLF assessed as growth inhibition after 24 to 72 hrs by MTS assay; details: human, NHLF cells
[3] = Antiproliferative activity against NHDF assessed as growth inhibition after 24 to 72 hrs by MTS assay; type: cell-based; details: human, NHDF cells
[4] = Antiproliferative activity against HUVEC assessed as growth inhibition after 24 to 72 hrs by MTS assay; type: cell-based; details: human, HUVEC cells
[5] = Antiproliferative activity against HMEC assessed as growth inhibition after 24 to 72 hrs by MTS assay; type: cell-based; details: human, HMEC cells
[6] = Half life in mouse serum; type: ADME
Mus musculus [7] = assay: Toxicity in mouse assessed as body weight loss at 1 mg/kg, iv once every 4 days for 3 injections; type: organism-based; set-up: dose 1 mg/kg, route intravenous; details: in vivo, 96 h
[8] = Toxicity in mouse assessed as tolerated dose compound treated once daily for 5 consecutive days; type: organism-based; details: in vivo
[9] = Plasma concentration in mouse at 6 mg/kg, iv after 30 mins; type: ADME, organism-based; set-up: dose 6 mg/kg, route intravenous
Mus musculus [10] = assay: Toxicity in mouse assessed as death at 0.03 to 3 mg/kg, iv once every 4 days for 3 injections; type: organism-based; set-up: dose 0.03-3 mg/kg, route intravenous; details: in vivo, 96 h
Mus musculus [11] = assay: Toxicity in mouse assessed as body weight loss at 0.5 mg/kg, iv led to the euthanization of mouse on day 9; type: organism-based; set-up: dose 0.5 mg/kg, route intravenous; details: in vivo
Mus musculus [12] = assay: Toxicity in mouse assessed as body weight loss at 3 mg/kg, iv once every 4 days for 3 injections; type: organism-based; set-up: dose 3 mg/kg, route intravenous; details: in vivo, 96 h
Mus musculus [13] = assay: Toxicity in mouse assessed as death at 0.5 mg/kg, iv led to the euthanization of mouse on day 9; type: organism-based, NCr; set-up: dose 0.5 mg/kg, route intravenous; details: in vivo
Mus musculus [14] = assay: Toxicity in mouse assessed as death at >= 1.5 mg/kg, iv compound treated once daily for 5 consecutive days; type: organism-based; set-up: dose 1.5 mg/kg, route intravenous; details: in vivo
HCT-116 [15] = assay: Antitumor activity against human HCT116 cells xenografted in NCr-nu/nu mouse assessed as tumor inhibition rate measured on day 41 at 6 mg/kg, iv once every 4 days for 3 injections after 16 days of tumor cell transplantation; type: functional
PC-3 = assay: Antitumor activity against human PC3 cells xenografted in NCr-nu/nu mouse assessed as tumor weight reduction measured on day 22 at 1 mg/kg, iv once daily for 5 injections; type: functional; details: PC-3, 528 h
HCT-116 [16] = assay: Antitumor activity against human HCT116 cells xenografted in NCr-nu/nu mouse assessed as tumor weight reduction at 1.5 to 3 mg/kg, iv once every 4 days for 3 injections after 16 days of tumor cell transplantation; type: functional, organism-based
Mus musculus [17] = assay: Toxicity in mouse assessed as body weight loss at 0.03 to 3 mg/kg, iv once every 4 days for 3 injections; type: organism-based; set-up: dose 0.03-3 mg/kg, route intravenous; details: in vivo, 96 h
[18] = Therapeutic index, ratio of GI50 for human HCT116 cells to GI50 for HMEC; type: cell-based, HCT-116; details: HCT116 cells and HMEC cells, read-out: RatioGI50
HCT-116 [19] = assay: Antitumor activity against human HCT116 cells xenografted in NCr-nu/nu mouse assessed as tumor weight reduction at 6 mg/kg, iv once every 4 days for 3 injections after 16 days of tumor cell transplantation; type: functional
[20] = Therapeutic index, ratio of GI50 for human HCT116 cells to GI50 for NHDF; type: cell-based, HCT-116; details: HCT116 cells and NHDF cells, read-out: RatioGI50
[21] = Therapeutic index, ratio of GI50 for human HCT116 cells to GI50 for NHLF; type: cell-based, HCT-116; details: HCT116 cells and NHLF cells, read-out: RatioGI50
[22] = Therapeutic index, ratio of GI50 for human HCT116 cells to GI50 for HUVEC; type: cell-based, HCT-116; details: HCT116 cells and HUVEC cells, read-out: RatioGI50
MDA-MB-231 = assay: Antiproliferative activity against human MDA-MB-231 cells assessed as growth inhibition after 24 to 72 hrs by MTS assay; type: functional
HCT-116 [23] = assay: Antitumor activity against human HCT116 cells xenografted in NCr-nu/nu mouse assessed as tumor inhibition rate measured on day 41and 44 at 15 mg/kg, iv once daily for 5 injections after 16 days of tumor cell transplantation; type: functional; details: HCT-116, 384 h
[24] = Plasma concentration in mouse at 6 mg/kg, iv upto 4 hrs; type: ADME, organism-based; set-up: dose 6 mg/kg, route intravenous

Row | Structure (SMILES) | GI50 (MCF7) | GI50 (HCT-116 [1]) | GI50 [2] | GI50 [3] | GI50 [4] | GI50 [5] | half-life [6] | Activity (Mus musculus [10]) | Activity (HCT-116 [16]) | selectivity ratio [18] | selectivity ratio [20] | selectivity ratio [21] | selectivity ratio [22] | GI50 (MDA-MB-231) | also measured
1 | CC(=O)O[C@@H](C)/C=C\C(=O)N[C@@H]1C[C@H](C)[C@H](C/C=C(C)/C=C/[C@H]2O[C@](C)(O)C[C@@]3(CO3)[C@@H]2O)O[C@@H]1C | 1 nM | 1 nM | – | – | – | – | – | – | – | – | – | – | – | – | GI50 (A549): 1 nM; GI50 (P388): 1 nM
2 | COc1cccc2c1C(=O)c1c(O)c3c(c(O)c1C2=O)C[C@@](O)(C(=O)CO)C[C@@H]3O[C@H]1C[C@H](N)[C@H](O)[C@H](C)O1 [DOXORUBICIN] | – | 70 nM | 223 nM | 462 nM | 109 nM | 276 nM | – | – | – | – | – | – | – | – | –
3 | CC(/C=C/[C@H]1OC(C)(C)C[C@@]2(CO2)[C@@H]1O)=C\C[C@@H]1O[C@H](C)[C@H](NC(=O)/C=C\[C@H](C)OC(=O)N2CCOCC2)C[C@@H]1C | – | – | – | – | – | – | 13 h | Non-toxic | inactive | – | – | – | – | – | Activity (Mus musculus [7]): 10%; MTD at 5 days [8]: 0.5 mg/kg; concentration at 0.5 h [9]: < 10 ng/mL; Activity (Mus musculus [11]): 6%; Activity (Mus musculus [12]): 11%; Activity (Mus musculus [13]): Toxic; Activity (Mus musculus [14]): Toxic; inhibition in vivo at 6 mg/kg (HCT-116 [15]): 41%; inhibition in vivo at 1 mg/kg (PC-3): 26%
4 | CC(=O)O[C@@H](C)/C=C\C(=O)N[C@@H]1C[C@H](C)[C@H](C/C=C(C)/C=C/[C@H]2OC(C)(C)C[C@@]3(CO3)[C@@H]2O)O[C@@H]1C | 0.02 nM | 0.07 nM | 0.91 nM | 0.44 nM | 0.06 nM | 0.11 nM | 2 h | Non-toxic | inactive | 1.6 | 6 | 2.7 | 1 | 0.07 nM | Activity (Mus musculus [17]): Non-toxic; inhibition in vivo at 6 mg/kg (HCT-116 [19]): 24%
5 | CC(=O)O[C@H]1C(=O)[C@@]2(C)[C@H]([C@H](OC(=O)c3ccccc3)[C@]3(O)C[C@H](OC(=O)[C@H](O)[C@@H](NC(=O)c4ccccc4)c4ccccc4)C(C)=C1C3(C)C)[C@]1(OC(C)=O)CO[C@@H]1C[C@@H]2O [PACLITAXEL] | – | – | – | – | – | – | – | – | – | – | – | – | – | – | inhibition in vivo at 15 mg/kg (HCT-116 [23]): 81%
6 | CO[C@@H]1[C@@H](/C=C/C(C)=C/C[C@@H]2O[C@H](C)[C@H](NC(=O)/C=C\[C@H](C)OC(=O)N3CCOCC3)C[C@@H]2C)OC(C)(C)C[C@@]12CO2 | 0.4 nM | 1.4 nM | 12 nM | 39 nM | 4 nM | 9 nM | – | – | – | 3.5 | 15 | 4.6 | 1.5 | 1.1 nM | concentration at 4 h [24]: < 10 ng/mL
